Reference: publication PMC7031696 (Cell chemical biology, 2019)
Values after ≈ are worked out from the molar mass of the structure shown. Like-named read-outs stand apart in the source and are kept apart here.

Columns and labels:
[1] = 1.5 h, 500 μM, pH 7.4
[2] = system: Plasmodium falciparum 3D7-A10 parasites; assay: Stage specificity assay (8-h exposure of synchronized stages, IC50^8h); format: cell-based; conditions: for IC50: Plasmodium falciparum
[3] = physchem
[4] = system: asynchronous 3D7-A10 parasite cultures; assay: Standard 72-h exposure asexual blood stage susceptibility assay (IC50^72h); format: cell-based, Plasmodium falciparum; conditions: Plasmodium falciparum, 3D7, 72 h, read-out: Overall (72hr assay) Mean IC50 (IC50^72h)
[5] = system: 3D7-MR4 trophozoite parasite-infected RBCs; assay: Metabolomic profiling (hydrophilic metabolite changes, UHPLC-MS); format: cell-based, Plasmodium falciparum

## Cc1cc(Nc2ccc(OCc3ccccc3)cc2)nc2cc(O)ccc12 [MMV007181]
[1]
  Ratio fil./std. (absorbance filtrate/standard): 0.69
[2]; 3D7-A10
  Ratio lowest IC50 8hr/IC50 72hr: 3.0
[2]; 8-h exposures, survival curves
  killing in stage specificity assay: incomplete killing at all asexual blood stages
[2]; 3D7, read-out: Early rings IC50 (IC50^8h), 8-h exposure 0–8 hr, bound given in μM
  IC50: > 25 µM
[2]; 3D7, read-out: Early trophozoites Mean IC50 (IC50^8h), 8-h exposure 16–24 hr, 3D7-A10, survival at 60 h
  IC50: 0.253 µM
[2]; 3D7, read-out: Late rings IC50 (IC50^8h), 8-h exposure 8–16 hr, bound given in μM
  IC50: > 25 µM
[2]; 3D7, read-out: Late trophozoites Mean IC50 (IC50^8h), 8-h exposure 24–32 hr, 3D7-A10, survival at 60 h
  IC50: 0.274 µM
[2]; 3D7, read-out: Schizonts Mean IC50 (IC50^8h), 8-h exposure 32–40 hr, 3D7-A10, survival at 60 h
  IC50: 0.57 µM
[2]; period when the parasite was most susceptible (lowest IC50^8h)
  Stage of peak activity (Figure 6): trophozoites
[2]; stage(s) with the lowest IC50^8h
  Peak Activity (Table S1): Trophs
[3]; pH 7.4
  solubility at 1.5 h: > 100 µM
[3]; pH 7.4, aqueous buffer, kinetic from dmso stock
  solubility at 1.5 h: 100 to 500 µM (≈ 35.6 to 178 µg/mL)
[4]
  IC50: 84.9 nM
[5]; 10 × IC50^72h, 2.5 hr, trophozoites
  peptide levels (hemoglobin catabolism signature): decreased peptide levels
[5]; metabolite 3-phosphoglycerate, log2 fold change
  Log2(fold changes) 3-phosphoglycerate: -0.1714
[5]; metabolite 4-Pyridoxic acid, log2 fold change
  Log2(fold changes) 4-Pyridoxic acid: -0.2247
[5]; metabolite 4-aminobutyrate, log2 fold change
  Log2(fold changes) 4-aminobutyrate: -0.0986
[5]; metabolite 4-phosphopantetheine, log2 fold change
  Log2(fold changes) 4-phosphopantetheine: 0.6961
[5]; metabolite 4-phosphopantothenate, log2 fold change
  Log2(fold changes) 4-phosphopantothenate: -0.6638
[5]; metabolite 5-aminopentanoic acid, log2 fold change
  Log2(fold changes) 5-aminopentanoic acid: -0.2294
[5]; metabolite 5-methyl-THF, log2 fold change
  Log2(fold changes) 5-methyl-THF: 0.0000
[5]; metabolite 5-phosphoribosyl-1-pyrophosphate, log2 fold change
  Log2(fold changes) 5-phosphoribosyl-1-pyrophosphate: 0.0000
[5]; metabolite 6-phospho-D-gluconate, log2 fold change
  Log2(fold changes) 6-phospho-D-gluconate: -0.1453
[5]; metabolite HVDD
  Log2(fold change) HVDD: -4.4739
[5]; metabolite Hydroxyisocaproic acid
  Log2(fold change) Hydroxyisocaproic acid: 0.0000
[5]; metabolite IDP
  Log2(fold change) IDP: -0.0045
[5]; metabolite IMP
  Log2(fold change) IMP: -0.1201
[5]; metabolite Inositol
  Log2(fold change) Inositol: 0.0000
[5]; metabolite Isopentyl-PP
  Log2(fold change) Isopentyl-PP: -0.4346
[5]; metabolite L-arginino-succinate
  Log2(fold change) L-arginino-succinate: -0.6665
[5]; metabolite LD
  Log2(fold change) LD: -0.1484
[5]; metabolite Myristoyl/tetradecanoyl-CoA
  Log2(fold change) Myristoyl/tetradecanoyl-CoA: 0.0000
[5]; metabolite N-Acetyl-L-alanine
  Log2(fold change) N-Acetyl-L-alanine: -0.3632
[5]; metabolite N-acetyl-L-ornithine
  Log2(fold change) N-acetyl-L-ornithine: -2.0310
[5]; metabolite N-acetyl-glucosamine-1/6-phosphate
  Log2(fold change) N-acetyl-glucosamine-1/6-phosphate: -0.0060
[5]; metabolite N-acetyl-glutamate
  Log2(fold change) N-acetyl-glutamate: 0.1987
[5]; metabolite N-acetyl-glutamine
  Log2(fold change) N-acetyl-glutamine: 0.1663
[5]; metabolite N-carbamoyl-L-aspartate
  Log2(fold change) N-carbamoyl-L-aspartate: -0.1286
[5]; metabolite NAD+
  Log2(fold change) NAD+: -0.1335
[5]; metabolite NADH
  Log2(fold change) NADH: 2.9716
[5]; metabolite NADP+
  Log2(fold change) NADP+: -0.2177
[5]; metabolite NADPH
  Log2(fold change) NADPH: 2.7260
[5]; metabolite O-acetyl-L-serine
  Log2(fold change) O-acetyl-L-serine: -0.0650
[5]; metabolite Octoluse 8/1P
  Log2(fold change) Octoluse 8/1P: -0.2583
[5]; metabolite Octoluse Bisphosphate
  Log2(fold change) Octoluse Bisphosphate: -0.7020
[5]; metabolite PD
  Log2(fold change) PD: -3.3017
[5]; metabolite PE
  Log2(fold change) PE: -2.9801
[5]; metabolite PEE
  Log2(fold change) PEE: -2.9268
[5]; metabolite PEEK
  Log2(fold change) PEEK: -4.7351
[5]; metabolite PVNF
  Log2(fold change) PVNF: -4.5493
[5]; metabolite Pyroglutamic acid
  Log2(fold change) Pyroglutamic acid: 0.2482
[5]; metabolite Pyrophosphate
  Log2(fold change) Pyrophosphate: 0.0000
[5]; metabolite Ribose-5-phosphate
  Log2(fold change) Ribose-5-phosphate: -0.4059
[5]; metabolite S-adenosyl-L-homocysteine
  Log2(fold change) S-adenosyl-L-homocysteine: -0.1192
[5]; metabolite S-adenosyl-L-methioninamine
  Log2(fold change) S-adenosyl-L-methioninamine: -3.2130
[5]; metabolite S-adenosyl-L-methionine
  Log2(fold change) S-adenosyl-L-methionine: -0.1206
[5]; metabolite S-methyl-5'-thioadenosine
  Log2(fold change) S-methyl-5'-thioadenosine: 0.4702
[5]; metabolite SD
  Log2(fold change) SD: -0.6167
[5]; metabolite SDL
  Log2(fold change) SDL: 0.0000
[5]; metabolite SID
  Log2(fold change) SID: -0.9911
[5]; metabolite Sedoheptulose bisphosphate
  Log2(fold change) Sedoheptulose bisphosphate: -0.4907
[5]; metabolite Thiamine pyrophosphate
  Log2(fold change) Thiamine pyrophosphate: -0.0717
[5]; metabolite UDP-D-glucose, log2 fold change
  Log2(fold changes) UDP-D-glucose: 0.0982
[5]; metabolite UDP-D-glucuronate, log2 fold change
  Log2(fold changes) UDP-D-glucuronate: -0.0548
[5]; metabolite UDP-N-acetyl-glucosamine, log2 fold change
  Log2(fold changes) UDP-N-acetyl-glucosamine: -0.0365
[5]; metabolite UDP, log2 fold change
  Log2(fold changes) UDP: -0.2952
[5]; metabolite UMP, log2 fold change
  Log2(fold changes) UMP: -0.1123
[5]; metabolite UTP, log2 fold change
  Log2(fold changes) UTP: -0.0747
[5]; metabolite hydroxyphenylpyruvate
  Log2(fold change) hydroxyphenylpyruvate: 0.0000
[5]; metabolite hydroxyproline/Aminolevulinate
  Log2(fold change) hydroxyproline/Aminolevulinate: -0.1078
[5]; metabolite hypoxanthine
  Log2(fold change) hypoxanthine: 0.1087
[5]; metabolite indole
  Log2(fold change) indole: -0.0870
[5]; metabolite inosine
  Log2(fold change) inosine: -0.1121
[5]; metabolite isoleucine
  Log2(fold change) isoleucine: 0.0000
[5]; metabolite lactate
  Log2(fold change) lactate: -0.3282
[5]; metabolite leucine
  Log2(fold change) leucine: -0.3120
[5]; metabolite lysine
  Log2(fold change) lysine: -2.3197
[5]; metabolite malate
  Log2(fold change) malate: -0.7445
[5]; metabolite maleic acid
  Log2(fold change) maleic acid: -0.7914
[5]; metabolite methionine
  Log2(fold change) methionine: 0.1152
[5]; metabolite myo-inositol
  Log2(fold change) myo-inositol: -0.3555
[5]; metabolite nicotinamide mononucleotide
  Log2(fold change) nicotinamide mononucleotide: -0.2883
[5]; metabolite nicotinate
  Log2(fold change) nicotinate: 0.1126
[5]; metabolite ornithine
  Log2(fold change) ornithine: -0.1929
[5]; metabolite orotate
  Log2(fold change) orotate: -0.4250
[5]; metabolite orotidine-5'-phosphate
  Log2(fold change) orotidine-5'-phosphate: -1.5378
[5]; metabolite oxaloacetate
  Log2(fold change) oxaloacetate: -0.5706
[5]; metabolite p-aminobenzoate
  Log2(fold change) p-aminobenzoate: 0.0000
[5]; metabolite p-hydroxybenzoate
  Log2(fold change) p-hydroxybenzoate: 0.0981
[5]; metabolite pantothenate
  Log2(fold change) pantothenate: 0.1598
[5]; metabolite phenylalanine
  Log2(fold change) phenylalanine: -0.4038
[5]; metabolite phenylpyruvate
  Log2(fold change) phenylpyruvate: 0.0000
[5]; metabolite phosphoenolpyruvate
  Log2(fold change) phosphoenolpyruvate: 0.0294
[5]; metabolite prephenate
  Log2(fold change) prephenate: -0.1912
[5]; metabolite proline
  Log2(fold change) proline: -0.4365
[5]; metabolite pyridoxine
  Log2(fold change) pyridoxine: -0.1437
[5]; metabolite pyruvate
  Log2(fold change) pyruvate: -0.7096
[5]; metabolite riboflavin
  Log2(fold change) riboflavin: 0.3011
[5]; metabolite ribose
  Log2(fold change) ribose: -0.0087
[5]; metabolite ribose-phosphate
  Log2(fold change) ribose-phosphate: -0.7988
[5]; metabolite ribulose-5-phosphate
  Log2(fold change) ribulose-5-phosphate: -0.4319
[5]; metabolite serine
  Log2(fold change) serine: -0.2012
[5]; metabolite sn-glycerol-3-phosphate
  Log2(fold change) sn-glycerol-3-phosphate: 0.0673
[5]; metabolite succinate/Methylmalonic acid
  Log2(fold change) succinate/Methylmalonic acid: -0.1908
[5]; metabolite succinyl-CoA/methylmalonyl-CoA
  Log2(fold change) succinyl-CoA/methylmalonyl-CoA: 0.0000
[5]; metabolite taurine
  Log2(fold change) taurine: 0.0434
[5]; metabolite thiamine
  Log2(fold change) thiamine: -0.2929
[5]; metabolite threonine/homoserine
  Log2(fold change) threonine/homoserine: -0.5619
[5]; metabolite thymidine
  Log2(fold change) thymidine: 0.0000
[5]; metabolite thymine, log2 fold change
  Log2(fold changes) thymine: 0.0000
[5]; metabolite trehalose-6-Phosphate, log2 fold change
  Log2(fold changes) trehalose-6-Phosphate: 0.0000
[5]; metabolite tryptophan, log2 fold change
  Log2(fold changes) tryptophan: -0.4056
[5]; metabolite tyrosine, log2 fold change
  Log2(fold changes) tyrosine: -0.2656
[5]; metabolite uridine, log2 fold change
  Log2(fold changes) uridine: 0.0000
